The test has as its target T1, Human recombinant PTP-1B (Homo sapiens, UniProt P18031).
T1 construct: Human recombinant PTP-1B, containing amino acids 1-321, fused to GST enzyme; GST (glutathione S-transferase)
T1 sequence (P18031 1-321): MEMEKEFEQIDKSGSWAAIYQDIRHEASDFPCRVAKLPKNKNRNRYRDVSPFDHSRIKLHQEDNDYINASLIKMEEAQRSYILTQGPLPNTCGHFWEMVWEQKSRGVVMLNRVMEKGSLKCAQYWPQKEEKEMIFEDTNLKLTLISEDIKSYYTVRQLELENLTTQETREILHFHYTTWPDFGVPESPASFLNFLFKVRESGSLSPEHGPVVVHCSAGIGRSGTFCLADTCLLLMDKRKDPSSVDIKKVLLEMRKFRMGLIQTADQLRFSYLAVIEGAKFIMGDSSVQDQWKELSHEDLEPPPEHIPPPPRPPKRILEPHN
Description: Assay for PTP-1B Activity (pNPP substrate). Format: biochemical. The settings on record: human recombinant PTP-1B (1-321) GST fusion, 2 mM pNPP, pH 7.4, 30° C., 20 min; read-out: Activity Code (IC50 range). The source says:
The activity of the compounds as modulators of protein tyrosine phosphatase, including PTP-1B, may be measured in standard assays (see, e.g., Examples 41 and 42). Briefly, the assay described herein employs human recombinant PTP-1B and a pNPP substrate in a rescue assay.
Assay for PTP-1B Activity
Enzyme: Human recombinant PTP-1B, containing amino acids 1-321, fused to GST enzyme (glutathione S-transferase) purified by affinity chromatography (Huyer et al, 1997, J. Biol. Chem., 272, 843-852).
pNPP: p-Nitrophenyl Phosphate (Calbiochem)
Assay Buffer: 50 mM HEPES (pH 7.4), 100 mM NaCl, 2 mM EDTA, 3 mM DTT
(5×) pNPP substrate: 10 mM pNPP in assay buffer
Enzyme: 1 mg/ml PTP1B (1-321), dilute 1:200 in assay buffer
Assay buffer: 50 mM HEPES (pH 7.4), 100 mM NaCl, 2 mM EDTA, 3 mM DTT
Enzyme dilution buffer: 50 mM HEPES (pH 7.4), 100 mM NaCl, 2 mM EDTA, 3 mM DTT
Substrate 198 mM p-Nitrophenyl Phosphate (pNPP) store at 4° C.
The assay was carried out at 30° C. in 96 well plates. The reaction mixture in 60 ul contained 50 mM HEPES (pH 7.4), 100 mM NaCl, 2 mM EDTA, 3 mM DTT, and 2 mM p-Nitrophenyl Phosphate (pNPP). 5 ul of the test compound (inhibitor) dissolved in DMSO or DMSO alone for control was added to each well and the plate was mixed for 2 min. The reaction was initiated by adding 20 ul of diluted PTP1B (5 ng/ul in 50 mM HEPES (pH 7.4), 100 mM NaCl, 2 mM EDTA, 3 mM DTT). After 20 min at 30° C., the enzyme reaction was terminated by adding 100 ul of 2 M K2CO3 to each well. The phosphatase activity was detected by using Victor II plate reader (Wallac) with absorbance detection at 405 nm. All the assays were done at least in duplicate. The initial rate of pNP is plotted against the concentration of inhibitor.
In general, IC50 refers to the concentration needed to halve the response being measured. In the case of `O=C(O)c1ccc(-c2cn(CCc3ccccc3)c(=O)n2Cc2ccc(C(F)(F)P(=O)(O)O)c(Br)c2)cc1` [Compound 14, 4-{3-[3-Bromo-4-(difluoro-phosphono-methyl)-benzyl]-2-oxo-1-phenethyl-2,3-dihydro-1H-imidazol-4-yl}-benzoic acid], the IC50 lay in the range of 250 to 2500 nM.

For `COC(=O)c1ccc(-c2cn(Cc3ccc(C#N)cc3)c(=O)n2Cc2ccc(C(F)(F)P(=O)(O)O)c(Br)c2)cc1` [Compound 15, 4-[3-[3-Bromo-4-(difluoro-phosphono-methyl)-benzyl]-1-(4-cyano-benzyl)-2-oxo-2,3-dihydro-1H-imidazol-4-yl]-benzoic acid methyl ester], the half-maximal inhibitory concentration (IC50) was 100 to 249 nM.

Take `CCOC(=O)c1ccc(-c2cn(Cc3ccccc3)c(=O)n2Cc2ccc(C(F)(F)P(=O)(O)O)c(Br)c2)cc1` [Compound 16, 4-{1-Benzyl-3-[3-bromo-4-(difluoro-phosphono-methyl)-benzyl]-2-oxo-2,3-dihydro-1H-imidazol-4-yl}-benzoic acid ethyl ester]: the IC50 is 250 to 2500 nM.

Turning to `CS(=O)(=O)c1ccc(-c2cn(Cc3ccccc3)c(=O)n2Cc2ccc(C(F)(F)P(=O)(O)O)c(Br)c2)cc1` [Compound 17, ({4-[3-Benzyl-5-(4-methanesulfonyl-phenyl)-2-oxo-2,3-dihydro-imidazol-1-ylmethyl]-2-bromo-phenyl}-difluoro-methyl)-phosphonic acid], the half-maximal inhibitory concentration (IC50) is below 99 nM.

Regarding `N#Cc1ccc(-c2cn(Cc3ccccc3)c(=O)n2Cc2ccc(C(F)(F)P(=O)(O)O)c(Br)c2)cc1` [Compound 20, ({4-[3-Benzyl-5-(4-cyano-phenyl)-2-oxo-2,3-dihydro-imidazol-1-ylmethyl]-2-bromo-phenyl}-difluoro-methyl)-phosphonic acid], the IC50 fell in the range of 100 to 249 nM.

In the case of `CS(=O)(=O)c1ccc(-c2cn(C3CC3)c(=O)n2Cc2ccc(C(F)(F)P(=O)(O)O)c(Br)c2)cc1` [Compound 21, ({2-Bromo-4-[3-cyclopropyl-5-(4-methanesulfonyl-phenyl)-2-oxo-2,3-dihydro-imidazol-1-ylmethyl]-phenyl}-difluoro-methyl)-phosphonic acid], the IC50 lay within 100 to 249 nM.

Turning to `CS(=O)(=O)c1ccc(-c2cn(Cc3cccc(F)c3)c(=O)n2Cc2ccc(C(F)(F)P(=O)(O)O)c(Br)c2)cc1` [Compound 22, ({2-Bromo-4-[3-(3-fluoro-benzyl)-5-(4-methanesulfonyl-phenyl)-2-oxo-2,3-dihydro-imidazol-1-ylmethyl]-phenyl}-difluoro-methyl)-phosphonic acid], the IC50 was in the range of 100 to 249 nM.

Consider `COC(=O)c1ccc(-c2cn(Cc3cc(OC)cc(OC)c3)c(=O)n2Cc2ccc(C(F)(F)P(=O)(O)O)c(Br)c2)cc1` [Compound 23, 4-[3-[3-Bromo-4-(difluoro-phosphono-methyl)-benzyl]-1-(3,5-dimethoxy-benzyl)-2-oxo-2,3-dihydro-1H-imidazol-4-yl]-benzoic acid methyl ester], for which the IC50 is below 99 nM.

In the case of `COC(=O)c1ccc(-c2cn(C3CC3)c(=O)n2Cc2ccc(C(F)(F)P(=O)(O)O)c(Br)c2)cc1` [Compound 24, 4-{3-[3-Bromo-4-(difluoro-phosphono-methyl)-benzyl]-1-cyclopropyl-2-oxo-2,3-dihydro-1H-imidazol-4-yl}-benzoic acid methyl ester], the 50% inhibitory concentration (IC50) is 100 to 249 nM.

Consider `COC(=O)c1ccc(-c2cn(Cc3ccccn3)c(=O)n2Cc2ccc(C(F)(F)P(=O)(O)O)c(Br)c2)cc1` [Compound 25, 4-{3-[3-Bromo-4-(difluoro-phosphono-methyl)-benzyl]-2-oxo-1-pyridin-2-ylmethyl-2,3-dihydro-1H-imidazol-4-yl}-benzoic acid methyl ester], for which the IC50 lay in the range of 100 to 249 nM.

As for `O=c1n(Cc2ccccc2)cc(-c2ccc(Cl)cc2)n1Cc1ccc(C(F)(F)P(=O)(O)O)c(Br)c1` [Compound 26, ({4-[3-Benzyl-5-(4-chloro-phenyl)-2-oxo-2,3-dihydro-imidazol-1-ylmethyl]-2-bromo-phenyl}-difluoro-methyl)-phosphonic acid], the IC50 lay within 100 to 249 nM.

Turning to `NC(=O)c1ccc(-c2cn(Cc3ccccc3)c(=O)n2Cc2ccc(C(F)(F)P(=O)(O)O)c(Br)c2)cc1` [Compound 27, ({4-[3-Benzyl-5-(4-carbamoyl-phenyl)-2-oxo-2,3-dihydro-imidazol-1-ylmethyl]-2-bromo-phenyl}-difluoro-methyl)-phosphonic acid], the IC50 was in the range of 100 to 249 nM.

For the compound `CNC(=O)c1ccc(-c2cn(Cc3ccccc3)c(=O)n2Cc2ccc(C(F)(F)P(=O)(O)O)c(Br)c2)cc1` [Compound 28, ({4-[3-Benzyl-5-(4-methylcarbamoyl-phenyl)-2-oxo-2,3-dihydro-imidazol-1-ylmethyl]-2-bromo-phenyl}-difluoro-methyl)-phosphonic acid], the IC50 lay within 250 to 2500 nM.

For the compound `O=c1n(Cc2ccccc2)cc(-c2ccccc2)n1Cc1ccc(C(F)(F)P(=O)(O)O)c(Br)c1` [Compound 29, {[4-(3-Benzyl-2-oxo-5-phenyl-2,3-dihydro-imidazol-1-ylmethyl)-2-bromo-phenyl]-difluoro-methyl}-phosphonic acid], the IC50 was in the range of 250 to 2500 nM.

For the compound `O=c1n(Cc2ccccc2)cc(-c2ccc3c(c2)OCCO3)n1Cc1ccc(C(F)(F)P(=O)(O)O)c(Br)c1` [Compound 30, ({4-[3-Benzyl-5-(2,3-dihydro-benzo[1,4]dioxin-6-yl)-2-oxo-2,3-dihydro-imidazol-1-ylmethyl]-2-bromo-phenyl}-difluoro-methyl)-phosphonic acid], the IC50 was 250 to 2500 nM.

Take `N#Cc1cccc(-c2cn(Cc3ccccc3)c(=O)n2Cc2ccc(C(F)(F)P(=O)(O)O)c(Br)c2)c1` [Compound 31, ({4-[3-Benzyl-5-(3-cyano-phenyl)-2-oxo-2,3-dihydro-imidazol-1-ylmethyl]-2-bromo-phenyl}-difluoro-methyl)-phosphonic acid]: the IC50 lay in the range of 250 to 2500 nM.

On to `CS(=O)(=O)c1ccc(-c2cn(Cc3cccc(N)c3)c(=O)n2Cc2ccc(C(F)(F)P(=O)(O)O)c(Br)c2)cc1` [Compound 32, ({4-[3-(3-Amino-benzyl)-5-(4-methanesulfonyl-phenyl)-2-oxo-2,3-dihydro-imidazol-1-ylmethyl]-2-bromo-phenyl}-difluoro-methyl)-phosphonic acid], for which the IC50 was below 99 nM.

As to `O=c1n(CC2CC2)cc(-c2ccccc2)n1Cc1ccc(C(F)(F)P(=O)(O)O)c(Br)c1` [Compound 33, {[2-Bromo-4-(3-cyclopropylmethyl-2-oxo-5-phenyl-2,3-dihydro-imidazol-1-ylmethyl)-phenyl]-difluoro-methyl}-phosphonic acid], the half-maximal inhibitory concentration (IC50) fell in the range of 250 to 2500 nM.

Regarding `COc1cc(Cn2cc(-c3ccc(C(=O)O)cc3)n(Cc3ccc(C(F)(F)P(=O)(O)O)c(Br)c3)c2=O)cc(OC)c1` [Compound 34, 4-[3-[3-Bromo-4-(difluoro-phosphono-methyl)-benzyl]-1-(3,5-dimethoxy-benzyl)-2-oxo-2,3-dihydro-1H-imidazol-4-yl]-benzoic acid], the half-maximal inhibitory concentration (IC50) lay in the range of 250 to 2500 nM.

Take `O=C(O)c1ccc(-c2cn(C3CC3)c(=O)n2Cc2ccc(C(F)(F)P(=O)(O)O)c(Br)c2)cc1` [Compound 35, 4-{3-[3-Bromo-4-(difluoro-phosphono-methyl)-benzyl]-1-cyclopropyl-2-oxo-2,3-dihydro-1H-imidazol-4-yl}-benzoic acid]: the IC50 lay within 250 to 2500 nM.
